In general, AUC(0-t) refers to exposure summed from dosing to a finite time, without extrapolation to infinity. What is called Cmax is the peak of the concentration-time curve. Broadly, the Tmax is the time at which the peak concentration occurs.

The structures appear in SMILES notation.

The values that follow come from publication PMC10537356, “Analyzing the Material Basis of Anti-RSV Efficacy of Lonicerae japonicae Flos Based on the PK-PD Model” (Molecules, 2023).

One data set deals with viruses. On the set-up: method as in PMID 19904996. Conditions: prevents viruses from entering cells; cited from earlier work.
Data set [1] is described as follows: Pharmacokinetic study of 15 LJF components in plasma of RSV-infected mice after oral LJF extract (UHPLC-QQQ MS). Type of data set: in vivo. Conditions: RSV mice plasma, oral LJF extract 12.0 g/kg; for AUC(0-t) / AUC(0-inf) / Cmax / MRT last / half-life / Tmax: mouse, n = 6; for AUC(0-t) / AUC(0-inf) / Cmax / MRT last / half-life: plasma, po, 12 g/kg; for AUC(0-t): read-out: AUC(0–t); for AUC(0-inf): read-out: AUC(0–∞); for Cmax: read-out: Cmax; for MRT last: read-out: MRT(0–t); for half-life: read-out: T1/2 (converted); for Tmax: read-out: Tmax. The protocol:
The LJF (12.0 g) were pulverized and soaked in pure water at a solid: liquid ratio of 1:200 and followed by extraction for 30 min. Then, the LJF extract was obtained by filtration, centrifugation (5000 rpm, 10 min) and concentration. Finally, the remains were freeze-dried and stored at −20 °C for subsequent pharmacokinetic assays.
All mice fasted for 1 night after being acclimatized for 7 days (no water restriction) and were randomly separated into 3 groups with 6 mice in each group. One group of healthy mice was used as the normal control group and administered physiological saline; the model group was established by intranasal infusion of RSV (TCID50 = 10^−6, 35 μL/mouse) and administered physiological saline. Members of the drug group were orally administered with LJF extract at the dose of 12 g/kg after infecting RSV. At 0.25 h, 0.5 h, 0.75 h, 1 h, 1.5 h, 2 h, 3 h,4 h, 6 h, 8 h, 10 h, 12 h and 24 h after administration blood samples (approximately 500 μL) were collected into anticoagulant tubes. The blood samples were centrifuged at 3500 rpm, 4 °C for 10 min, and the plasma (upper layer) was separated and stored at −80 °C till analysis. At the same time, the lung tissue was removed, weighed and placed in the EP tube together with five times the weight of the lung tissue in PBS solution containing 1% PMSF. Subsequently, the tissue samples were homogenized using the tissue grinder, and centrifugation to obtain a supernatant for further examination.
An amount of 50 μL IS and 2 mL acetonitrile were mixed into 200 μL plasma, after which the mixture was centrifuged (12,000 rpm, 4 °C, 10 min) and dried with nitrogen. The residue was dissolved in 70% acetonitrile containing 1% formic acid, centrifuged and subsequently the supernatant (2 μL) was injected into the UHPLC-QQQ-MS system.
Agilent 1260 series (Santa Clara, CA, USA) chromatography system was equipped with a solvent degasser, G1311B quaternary pump and G1329B automated injector. The elution was performed on a Halo® C18 column (2.1 × 100 mm, 2.7 μm) at 30 °C, and the mobile phase consisted of 0.05% formic acid in water for solvent A and 0.05% formic acid in acetonitrile for solvent B at a flow rate of 0.3 mL/min. The gradient elution was as follows: 0–30 min at 5–25% B, 30–35 min at 25–55% B, 35–45 min at 55–70% B, 45–55 min at 70–100% B, and 5 μL for analysis.
The MS/MS analysis was performed by Agilent 6470 Triple Quadrupole LC/MS (Santa Clara, CA, USA) with an ESI source. MRM was selected for the detection of the standards and internal standard with a dwell time of 2 ms. The mass spectrometry conditions were optimized as follows: Nebulizer pressure: 50 psi; capillary: positive: 4000 V, negative: 3500 V; cell acceleration voltage: 5 V; gas temp: 350 °C and flow rate at 10 L/min. The acquired data were processed and analyzed by Mass Hunter Workstation quantitative analysis.
Fifteen standards and IS were optimized for mass conditions by the positive and negative ion modes of the chromatographic system, respectively. The pharmacokinetics of 15 chemical constituents in RSV-infected mice were assessed using the UPLC-QQQ-MS/MS method.
The pharmacokinetic parameters, including maximum concentration (Cmax), time to reach Cmax (Tmax), the elimination half-life (T1/2), mean residence time (MRT), and area under the concentration–time curve (AUC) were calculated using non-compartmental analysis by Phoenix 8.1.0.3530.

A further data set concerns RSV. The settings on record: by inhibiting virus–cell fusion in the early stage and cell–cell fusion at the end of the RSV replication cycle; cited from earlier work.

Take `C[C@@H]1[C@H]2[C@H](O[C@@H]3O[C@H](CO)[C@@H](O)[C@H](O)[C@H]3O)OC=C(C(=O)O)[C@H]2C[C@@H]1O` [Loganic acid]: the antiviral activity result in the data set on viruses is “significant antiviral activity”. Moreover, in data set [1], the AUC(0-t) amounted to 84.9 ± 12.8 ng·h/mL, the AUC(0-inf) came to 99.3 ± 18.4 ng·h/mL, the maximum concentration (Cmax) worked out at 87.6 ± 10.9 ng/mL and the MRT last stood at 2.29 ± 0.337 h. Moreover, in data set [1], the half-life is 2.33 ± 0.429 h and the time of peak concentration (Tmax) is 0.5 h.

As to `O=C(C=Cc1ccc(O)c(O)c1)OC1CC(O)(C(=O)O)CC(O)C1OC(=O)C=Cc1ccc(O)c(O)c1` (stereo not drawn) [Isochlorogenic acid C], the anti-RSV effects result with RSV was “specific anti-RSV effects”. In data set [1], the “shape of the concentration–time curve” value was “double or multiple peaks”, the AUC(0-t) was 926 ± 39 ng·h/mL, the AUC(0-inf) was 1450 ng·h/mL and the Cmax amounted to 560 ± 20.7 ng/mL. Moreover, in data set [1], the MRT last is 6.39 ± 0.337 h, the half-life is 26.9 ± 3.16 h and the Tmax is 2 h.
